Laboratory results: patent US20110177178A1, “Extracts of Deschampsia antarctica Desv. with antineoplastic activity” (Uxmal S.A., Chile, priority 2007, published 2011)

System: LoVo colorectal cancer cells
Assay: in vitro growth / proliferation of LoVo colon cancer cells
Assay type: cell-based, human
Conditions: for antineoplastic activity of peaks and peak combinations: 450 uM, FIG. 14
Protocol: FIG. 2. […] The extracts were prepared with water, then dried and dissolved in methanol. Control contains no extract added and the methanol control is a control containing 5% methanol as was used to dissolve the dried aqueous extract. FIG. 3. Effects of ethyl acetate (a and b) and methanol (c and d) extracts at to concentration of 75 ug/ml on LoVo colorectal cancer cells (a and c) and we38 human fetal fibroblast cells (b and d). FIG. 4. […] An assay to test the biological activity of individual peaks was carried out using the same antineoplastic test already evaluated for the whole extract. The main purpose of these studies was to identify who are the peaks with the highest biological activity and to determine a synergistic effect among the different compounds.

| SMILES | antineoplastic activity of peaks and peak combinations | concentration at which inhibitory effect of cellular proliferation was observed, converted (LoVo, corresponds to 1.7 mM) | concentration at which inhibitory effect of cellular proliferation was observed (LoVo, tested at 0.017, 0.17 and 1.7 mM, FIG. 4) |
| --- | --- | --- | --- |
| COc1cc(O)c2c(=O)cc(-c3ccc(O)c(O)c3)oc2c1C1OC(CO)C(O)C(O)C1OC1OCC(O)C(O)C1O (single isomer, unassigned; peak 2) [peak 2, isowertiajaponine (7-O-methyl orientin-2″-O-arabinopiranoside)] | only a weak antineoplastic activity | 1000 µg/mL | 1.7 mM |
| O=c1cc(-c2ccc(O)c(O)c2)oc2c(C3OC(CO)C(O)C(O)C3OC3OCC(O)C(O)C3O)c(O)cc(O)c12 (single isomer, unassigned; peak 1) [peak 1, 2″-O-β-O arabinopyranoside orientin (orientin traces)] | only a weak antineoplastic activity |  |  |
